Data on two molecules can be found in article PMC11301756, “The crystal structure of Shethna protein II (FeSII) from Azotobacter vinelandii suggests a domain swap” (Acta Crystallographica Section D: Structural Biology, 2024).

Data set [1] addresses T1, FeSII (Shethna protein II) (Azotobacter vinelandii, UniProt Q44501).
T1 construct: synthetic gene in pRSET-A, no tag, expressed in E. coli KRX; about 13 kDa; dimer in solution; prepared aerobically (oxidized)
T1 sequence (Q44501 2-122 limits assumed): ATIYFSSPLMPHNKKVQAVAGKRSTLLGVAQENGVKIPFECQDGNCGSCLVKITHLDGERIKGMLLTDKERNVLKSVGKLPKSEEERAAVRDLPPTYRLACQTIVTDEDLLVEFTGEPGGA
In words: X-ray crystal structure (Fe-SAD). In kind it is binding. Conditions: intrinsic cluster, protein prepared and crystallized aerobically (oxidized); pH 8.0; five copies in asymmetric unit, one closed and four open (domain-swapped).

Data set [2] deals with the molecule itself. Nature of the data set: crystal structure; FeSII alone, hanging-drop vapour diffusion, 0.1 M HEPES pH 8.0, 0.2 M sodium citrate, 24% PEG 3350, 2% 1-butanol, 40 mg/ml FeSII; P2(1)2(1)2, 1.65 Å, Fe-SAD; dimers between chains and crystallographic symmetry mates.

As to `[S]1[Fe][S][Fe]1` [2Fe–2S cluster], in data set [1], the “X-ray crystal structure (Fe-SAD), 1.65 A” value is recorded as “In chain E (salmon) in the crystal, the lid helix from chain E covers the iron–sulfur cluster”.

B1: Shethna protein II (FeSII) from Azotobacter vinelandii (natural protein, UniProt Q44501 1-122, looked up)
chain: MATIYFSSPLMPHNKKVQAVAGKRSTLLGVAQENGVKIPFECQDGNCGSCLVKITHLDGERIKGMLLTDKERNVLKSVGKLPKSEEERAAVRDLPPTYRLACQTIVTDEDLLVEFTGEPGGA
notes: FeSII (Shethna protein II), adrenodoxin-type 2Fe-2S ferredoxin of Azotobacter vinelandii, locus AVIN_39700; synthetic gene in pRSET-A with no tag, amplified with primers from the start codon (ATGGCGACGATCTATTTCAGCAGC) to the stop codons; Carries a 2Fe-2S cluster; prepared aerobically (oxidized); Five copies in the asymmetric unit of the crystal; also called FeSII protein; source: E. coli …
With B1, the binding result in data set [2] is given as “binds”.
